From the supplement of paper PMC10307832

How the values were obtained:
Experiment in all cases: relative viability (nuclei count vs DMSO), 5 days (fraction); higher = more cells survive
KIN001-266 + Vorinostat = compound: CCN1CCC(CC1)N2C=C(N=N2)CNC3=CC4=C(C(=CN=C4C(=C3)Cl)C#N)NC5=CC(=C(C=C5)F)Cl [KIN001-266] + O=C(CCCCCCC(=O)Nc1ccccc1)NO [Vorinostat] (partner 1 µM)
How it was run: (§1)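 Medians of duplicate plates are given as relative viability. That measure is the nuclei count in treated wells divided by the count in vehicle wells. Counts were taken on 4× images of lung cancer cell lines in 1536-well plates, 5 days after pin-tool dosing the day after seeding with one drug alone or a fixed anchor-drug dose plus five library-drug doses (not always all listed) in √10 steps.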

KIN001-266 + Pemetrexed = compound: CCN1CCC(CC1)N2C=C(N=N2)CNC3=CC4=C(C(=CN=C4C(=C3)Cl)C#N)NC5=CC(=C(C=C5)F)Cl [KIN001-266] + Nc1nc2[nH]cc(CCc3ccc(C(=O)N[C@@H](CCC(=O)O)C(=O)O)cc3)c2c(=O)[nH]1 [Pemetrexed] (partner 0.2 µM)
How it was run: as §1

KIN001-266 + Olaparib = compound: CCN1CCC(CC1)N2C=C(N=N2)CNC3=CC4=C(C(=CN=C4C(=C3)Cl)C#N)NC5=CC(=C(C=C5)F)Cl [KIN001-266] + O=C(c1cc(Cc2n[nH]c(=O)c3ccccc23)ccc1F)N1CCN(C(=O)C2CC2)CC1 [Olaparib] (partner 8 µM)
How it was run: as §1

KIN001-266 + Linsitinib = compound: CCN1CCC(CC1)N2C=C(N=N2)CNC3=CC4=C(C(=CN=C4C(=C3)Cl)C#N)NC5=CC(=C(C=C5)F)Cl [KIN001-266] + C[C@]1(O)C[C@@H](c2nc(-c3ccc4ccc(-c5ccccc5)nc4c3)c3c(N)nccn32)C1 [Linsitinib] (partner 1 µM)
How it was run: as §1

Row | Cell Line | relative viability (KIN001-266 + Vorinostat; first compound 0.08 µM) | relative viability (KIN001-266 + Vorinostat; first compound 0.253 µM) | relative viability (KIN001-266 + Vorinostat; first compound 0.8 µM) | relative viability (KIN001-266 + Vorinostat; first compound 2.53 µM) | relative viability (KIN001-266 + Vorinostat; first compound 8 µM) | relative viability (KIN001-266 + Pemetrexed; first compound 0.08 µM) | relative viability (KIN001-266 + Pemetrexed; first compound 0.253 µM) | relative viability (KIN001-266 + Pemetrexed; first compound 0.8 µM) | relative viability (KIN001-266 + Pemetrexed; first compound 2.53 µM) | relative viability (KIN001-266 + Pemetrexed; first compound 8 µM) | relative viability (KIN001-266 + Olaparib; first compound 0.08 µM) | relative viability (KIN001-266 + Olaparib; first compound 0.253 µM) | relative viability (KIN001-266 + Olaparib; first compound 0.8 µM) | relative viability (KIN001-266 + Olaparib; first compound 2.53 µM) | relative viability (KIN001-266 + Olaparib; first compound 8 µM) | relative viability (KIN001-266 + Linsitinib; first compound 0.08 µM) | relative viability (KIN001-266 + Linsitinib; first compound 0.253 µM) | relative viability (KIN001-266 + Linsitinib; first compound 0.8 µM) | relative viability (KIN001-266 + Linsitinib; first compound 2.53 µM) | relative viability (KIN001-266 + Linsitinib; first compound 8 µM)
1 | NCI-H2023 | 0.676 | 0.871 | 0.675 | 0.636 | 0.539 | 0.233 | 0.192 | 0.296 | 0.221 | 0.201 | 0.465 | 0.489 | 0.528 | 0.47 | 0.411 | 0.696 | 0.706 | 0.696 | 0.617 | 0.481
2 | NCI-H2085 | 0.785 | 0.779 | 0.808 | 0.772 | 0.667 | 0.896 | 0.884 | 0.738 | 0.908 | 0.798 | 0.763 | 0.791 | 0.725 | 0.721 | 0.598 | 0.854 | 0.986 | 0.908 | 0.949 | 0.793
3 | NCI-H2087 | 0.455 | 0.776 | 0.965 | 0.898 | 0.594 | 0.646 | 0.716 | 0.637 | 0.581 | 0.587 | 0.616 | 0.494 | 0.654 | 0.374 | 0.346 | 0.924 | 0.95 | 0.963 | 0.791 | 0.599
4 | NCI-H2126 | 0.809 | 0.783 | 0.751 | 0.732 | 0.694 | 0.713 | 0.73 | 0.758 | 0.687 | 0.619 | 0.896 | 0.925 | 0.943 | 0.848 | 0.842 | 0.72 | 0.724 | 0.739 | 0.73 | 0.73
5 | NCI-H2228 | 0.631 | 0.645 | 0.722 | 0.509 | 0.422 | 0.329 | 0.325 | 0.35 | 0.322 | 0.352 | 0.692 | 0.735 | 0.682 | 0.727 | 0.496 | 0.94 | 0.813 | 0.483 | 0.518 | 0.454
6 | NCI-H2347 | 0.678 | 0.647 | 0.62 | 0.594 | 0.418 | 0.455 | 0.463 | 0.43 | 0.452 | 0.433 | 0.619 | 0.593 | 0.507 | 0.568 | 0.479 | 0.998 | 0.936 | 0.937 | 0.762 | 0.573
7 | NCI-H2405 | 1.08 | 1.03 | 1.02 | 1.04 | 0.809 | 1.08 | 1.04 | 1.2 | 0.84 | 0.932 | 0.889 | 0.905 | 0.906 | 0.853 | 0.642 | 0.888 | 0.887 | 0.942 | 0.928 | 0.584
